Laboratory results from PubChem BioAssay (NCI).
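Method: 48-hour compound exposure of cells in 96-well plates, five concentrations, linear interpolation of endpoints. Abbreviation: GI50, concentration required for 50% inhibition of growth. TGI marks complete inhibition of growth.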 Where a SMILES comes first, the peptide text is derived from it. The star is where a group is joined. Bn = c1ccc(C*)cc1

Assays:
Test in all cases: NCI anticancer screen, dose series, 48 h
UACC-257 melanoma = tested on: UACC-257 melanoma
T-47D breast = tested on: T-47D breast
TK-10 renal = tested on: TK-10 renal
DU-145 prostate = tested on: DU-145 prostate
A498 renal = tested on: A498 renal
HCT-116 colon = tested on: HCT-116 colon
SK-OV-3 ovarian = tested on: SK-OV-3 ovarian
SNB-75 CNS = tested on: SNB-75 CNS
NCI-H522 lung = tested on: NCI-H522 lung
NCI/ADR-RES ovarian = tested on: NCI/ADR-RES ovarian

SMILES	TGI (UACC-257 melanoma) [µM]	TGI (T-47D breast) [µM]	TGI (TK-10 renal) [µM]	TGI (DU-145 prostate) [µM]	TGI (A498 renal) [µM]	TGI (HCT-116 colon) [µM]	TGI (SK-OV-3 ovarian) [µM]	TGI (SNB-75 CNS) [µM]	TGI (NCI-H522 lung) [µM]	TGI (NCI/ADR-RES ovarian) [µM]	GI50 (UACC-257 melanoma) [µM]	GI50 (T-47D breast) [µM]	GI50 (TK-10 renal) [µM]	GI50 (DU-145 prostate) [µM]	GI50 (A498 renal) [µM]	GI50 (HCT-116 colon) [µM]	GI50 (SK-OV-3 ovarian) [µM]	GI50 (SNB-75 CNS) [µM]	GI50 (NCI-H522 lung) [µM]	GI50 (NCI/ADR-RES ovarian) [µM]
Clc1ccc(Cl)c(SCCCN2CCNCC2)c1	26.5	58.1	31.4	36	28.2	41.5	32	35.3	34	36.2										
O=C1CCCc2cc3c(cc21)CC1(C3)Cc2ccc3c(c2C1)C(=O)CCC3 (stereo not drawn)	26.5	> 100	> 100	> 100	> 100	> 100	> 100	80.4	> 100	37										
COC(=O)C1(Cc2ccc3c(c2)CCC3)Cc2cc3c(cc2C1)CCC3	62.2	60.7	> 100	> 100	> 100	> 100	> 100	> 100	56.5	> 100										
COc1ccc(-c2csc(NC(=O)CSc3nc(C)c(-c4ccccc4)n3Nc3ccccc3)n2)cc1	> 100	7.49	> 100	> 100	> 100	> 100	> 100	> 100	> 100	> 100	> 100	2.82	> 100	18	31.2	5.32	> 100	12.8	3.35	4.21
COC(=O)C1OC(O[C@H]2CC[C@]3(C)[C@H]4CC=C5[C@@H]6CC(C)(C)CC[C@]6(C(=O)OC6OCC(O)C(O)C6OC6OC(C)C(OC7OCC(OC8OCC(O)C(O)C8O)C(O)C7O)C(O)C6O)[C@H](O)C[C@@]5(C)[C@]4(C)CC[C@H]3C2(C)C)C(O)C(O)C1O (stereo partly drawn)	13.1	13.2	22.5	16.9	3.94	12.9	28.1	11.3	7.76	21.1										
Cc1c2ccncc2c(C)c2c1[nH]c1ccccc12	4.64	0.509	2.6	2.13	3.62	1.68	4.44	2.64	2.93	2.93		0.173	0.79	0.695						
O/C(=C\c1nc2ccccc2nc1NC12CC3CC(CC(C3)C1)C2)c1ccc(Br)cc1	> 10	> 10	> 10	> 10	> 10	> 10	> 10	> 10	> 10	> 10										
c1ccc(-c2cnc(-c3ccc(-c4ncc(-c5ccccc5)o4)cc3)o2)cc1	> 100	> 100	> 100	> 100	> 100	> 100	> 100	> 100	> 100	> 100										
CC1=CC(=O)C(C(O)(C(F)(F)F)C(F)(F)F)C(C)(C)C1 (stereo not drawn)	> 10	> 10	> 10	> 10	> 10	> 10	> 10	> 10	> 10	> 10										
COc1ccc(N=Nc2c3c(c(O)c4ccccc24)CCC(C)(C)O3)cc1	37.5	25.2	65.8	71.8	32	28.9	> 100	52.9	33.5	> 100										
O=C(c1ccccc1)N1C(=S)N=C(Nc2ccccc2)C1=Nc1ccccc1	> 100	> 100	> 100	> 100	> 100	> 100	> 100	> 100	> 100	> 100										
Cc1ccc(S(=O)(=O)NC(=O)NNc2ccc(F)cc2)cc1	> 100	> 100	> 100	> 100	> 100	> 100	> 100	> 75.8	> 100	> 100										
CCCCN(CCCC)C(=C(C(Cl)=C(Cl)Cl)[N+](=O)[O-])N(CCCC)CCCC	> 100	> 100	> 100	> 100	> 100	> 100	> 100	> 100	> 100	> 100										
COc1ccc2c(c1)CCN=C2c1ccccc1CCCCl	> 100	> 100	> 100	> 100	> 100	61.3	> 100	> 100	52.5	> 100										
O=C1CC(Sc2nc3ccc(I)cc3c(=O)n2Cc2ccccc2)C(=O)NN1 (stereo not drawn)	35.3	34.3	30.5	34.8	29.7	29.1	29.7	24.5	4.26	52.1										
CCc1nc2cc3cccnc3c(Cl)c2[nH]c1=O	> 100	> 100	> 100	> 100	> 100	> 100	> 100	50.4	> 100	> 100										
COc1ccc(N=C2C(=S)N(c3ccc(OC)cc3)/C(=N/S(=O)(=O)c3ccccc3)N2c2ccccc2)cc1	26.6	7.6	28.3	> 48.8	> 100	17.7	> 55.4	35.1	4.24	> 71.4										

SMILES	TGI (UACC-257 melanoma) [µM]	TGI (T-47D breast) [µM]	TGI (TK-10 renal) [µM]	TGI (DU-145 prostate) [µM]	TGI (A498 renal) [µM]	TGI (HCT-116 colon) [µM]	TGI (SK-OV-3 ovarian) [µM]	TGI (SNB-75 CNS) [µM]	TGI (NCI-H522 lung) [µM]	TGI (NCI/ADR-RES ovarian) [µM]	GI50 (UACC-257 melanoma) [µM]	GI50 (T-47D breast) [µM]	GI50 (TK-10 renal) [µM]	GI50 (DU-145 prostate) [µM]	GI50 (A498 renal) [µM]	GI50 (HCT-116 colon) [µM]	GI50 (SK-OV-3 ovarian) [µM]	GI50 (SNB-75 CNS) [µM]	GI50 (NCI-H522 lung) [µM]	GI50 (NCI/ADR-RES ovarian) [µM]
c1ccc(C2=Nn3c(CCCCCCCCc4nnc5n4N=C(c4ccccc4)CS5)nnc3SC2)cc1	> 100	> 100	79	> 100	> 96.1	> 100	85.6	33.6	> 100	> 100										
COc1cc2c(cc1OC)C13CC[N+]4(C)CC5=CCOC6CC(=O)N2C1C6C5CC34[O-] (stereo not drawn)	> 100	> 100	> 100	> 100	> 100	> 100	> 100	> 100	> 100	> 100										
CC1=C[C@@H](C)C[C@]2(C)CC[C@H](O2)[C@]23CC[C@](C(=O)O)(C[C@H](O2)[C@@H]2O[C@@](C)(CC2=O)[C@@H](O)[C@H]2CC[C@@]4(CCC[C@@H](O4)[C@H](C)C(=O)O[C@H]4C[C@H]([C@]5(O)OCC[C@H](C)[C@@H]5O)O[C@H]4C=C1)O2)O3	> 10	> 10	> 10	> 10	> 10	> 10	> 10	> 6.85	> 10	> 10										
COc1cc(OCc2ccc3nc(OC)c(OC)nc3c2)cc(OC)c1OC	> 10	> 10	> 10	> 10	> 10	> 10	> 10	> 10	> 10	> 10										
COc1c(O)c(O)cc2c1-c1ccc(OC)c(=O)cc1C(NC(C)=O)CC2 (stereo not drawn)	76.9	> 100	> 100	40.6	89	25.6	32.9	63.9	3.5	> 69.8										
N#CCCN(CCC#N)c1ccc(/C=C2\SC(=S)NC2=O)cc1Br	> 100	> 100	> 100	> 100	> 100	> 100	> 100	> 100	> 100	> 100										
COP(=O)(OC)C12CCOCCN1c1ccccc1C2=O (stereo not drawn)	> 100	> 100	> 100	> 100	> 100	> 100	> 100	> 100	> 100	> 100										
N#Cc1c(C#N)c(-c2ccccc2)n(-c2ccccc2)c1N	> 100	56.1	> 100	> 100	> 100	> 100	> 100	86.4	> 100	> 100										
CC(C)(C)C(=O)C(Cc1ccccc1)C(=O)C(C)(C)C	> 100	> 100	> 100	> 100	> 100	> 100	> 100	> 100	> 100	> 100										
COc1cc(CC(C)N)ccc1O (stereo not drawn)	> 100	> 100	> 100	> 100	> 100	> 100	> 100	> 100	> 100	> 100										
CCN(CC)CCNc1ccc2ncn3c4cc(OC)c(OC)c(=O)c4c(O)c1c23	44.2	42.4	31.6	23.5	29.5	5.82	28.8	16.5	25.9	41.8										
COC(=O)C(CC(C)C)NC(=O)C(N)Cc1ccc(OCc2ccccc2)cc1 (stereo not drawn) (H-Tyr(Bn)-Leu-OMe; configuration not given here)	> 10	> 10	> 10	> 10	> 10	> 10	> 10	> 10	> 10	> 10										
Cc1cn([C@H]2C[C@](C)(CO)N(C)O2)c(=O)[nH]c1=O	> 100	> 100	> 100	> 100	> 100	> 100	> 100	> 100	> 100	> 100										
O=C(O)c1c2c(cc3c1CC1(Cc4ccccc4C1=O)C3)CCC2 (stereo not drawn)	> 100	> 90.7	> 100	> 100	96	> 100	> 100	> 94.6	64.5	> 100										
N#CC(=N)c1ncn(-c2ccccc2N)c1N	> 100	> 100	> 100	> 100	> 100	> 100	> 100	> 100	> 100	> 100										
COc1ccc(N=NC(=Nc2ccc(F)cc2)c2ccc(N(CCC#N)CCC#N)cc2)cc1	70.4	> 100	> 100	> 100	76.3	> 100	> 100	84.1	47	> 100										
O=C1c2cccc(NCCNCCO)c2C(=O)c2cccc(NCCNCCO)c21	9.4	4.26	23.2	5.91	7.44	4.77	8.45	3.03	1.66	30.9										
